In ChEMBL document CHEMBL3507680, “University of Dundee, Gates Library screen for HepG2 cell viability”:

Assay: Human HepG2 cell viability assay in 384 well format
Format: toxicity, cell-based
Set-up: dose 125 nL, time 70.5 hour; cytotoxicity at 70.5 h: concentration not given beside the values
Settings: HepG2 cells, read-out: Inhibition

Compound	cytotoxicity at 70.5 h
CC(C)=CCC/C(C)=C/CN1CCN(C)C2(CCNC(=O)CC2)C1 (stereo not drawn)	-9.38%
O=C1CO[C@@H]2CN(CC3CC3)C[C@H]2N1Cc1cccc(F)c1	14.4%
CC(NC(=O)NCCCOc1ccccc1F)c1nncn1C (stereo not drawn)	-7.39%
O=C(N1CCCC1)N1CCO[C@H]2[C@@H](OCc3cccnc3)CC[C@@H]21	-8.11%
O=C(CCC(=O)N1CCc2[nH]c3ccccc3c2C1)NCc1ccco1	-8.42%
c1ccc(CNc2ncc(CN3CCCN4CCC[C@H]4C3)cn2)cc1	-3.55%
Cc1nccc(N(C)Cc2ncc(-c3ccccc3C(=O)O)s2)n1	-1.97%
O=S(=O)(NC1CCC12CCN(CC1CC1)CC2)c1ccccc1 (stereo not drawn)	11.7%
COCCN1C(=O)CC[C@@H]2[C@H]1CCN2C(=O)N(C)C	-8.72%
Cc1cc(NC(=O)N2CCOCC2)nn1-c1cccc(Cl)c1	-2.25%
Cc1cccnc1CN1CCN(CC(=O)N(C)C)[C@@H]2CS(=O)(=O)C[C@@H]21	-5.23%
Cc1ccc(N2CCCC(NCc3cc(C)on3)C2)nn1 (stereo not drawn)	-3.47%
Cc1ccc(S(=O)(=O)N2CCN(C)C3(CCC(=O)N(C)CC3)C2)s1 (stereo not drawn)	-5.58%
CCc1cccc(NC(=O)CCN2CC=C(c3cnn(C)c3)CC2)c1	-5.53%
O=C(CCc1nc(C2CC2)no1)c1ccc(F)c(F)c1	-17.2%
CC(NCc1ccccc1Br)c1ccc2[nH]c(=O)[nH]c2c1 (stereo not drawn)	3.35%
CC(=O)N1CCN(C(=O)NCc2ccc(Cl)s2)CC1	20.2%
Cc1ccsc1-c1nccn1CCN1CCCCC1CO (stereo not drawn)	-4.24%
Cc1ccccc1C(C)NC(=O)CSCC#N (stereo not drawn)	12.8%
O=C(O)C1(Oc2ccc3c(c2)OCO3)CCN(C2CCOCC2)CC1	-14.1%
CCC(C(=O)N(C)Cc1cc(-c2ccccc2)n[nH]1)n1cccn1 (stereo not drawn)	-13.1%
O=C(NCc1ccccc1F)NCC(O)c1cccc(F)c1 (stereo not drawn)	-10.3%

Compound	cytotoxicity at 70.5 h
CN(Cc1cccnc1)Cc1cncc2c1CCN(c1ccccn1)C2	2.24%
Cc1cc(C)c(CNC(=O)NC(C)c2ccc3c(c2)CCC3)c(=O)[nH]1 (stereo not drawn)	25.3%
CCOC(=O)N1CCC(Oc2ccc(C(F)(F)F)cn2)CC1	-7.88%
CC(C)[C@@H]1CN(C2CCN(Cc3ccccc3)CC2)C[C@H]1NS(C)(=O)=O	0.292%
CC(C)C(=O)N1CC[C@H]2N(C)CC[C@@]2(C(=O)Nc2cccnc2)CC1	-10.9%
CC(=O)N1CCCC(c2ccc(N3CCN(C)CC3)cn2)C1 (stereo not drawn)	-3.54%
O=c1[nH]c(-c2ccc(F)c(F)c2)nc2c1CCNC2	-1.92%
Cc1noc([C@@H]2C[C@H]3OCC[C@H]3N(Cc3ccoc3)C2)n1	-6.19%
NC(=O)C1CCN(C(=O)c2ccccc2OCc2ccccc2Cl)CC1	12.3%
COCCN(Cc1ccoc1)C(=O)CSc1ccc(F)cc1	-5.61%
CS(=O)(=O)NCc1noc2c1CN(C(=O)C1CCC1)CC2	-8.52%
CC(C)(N)C(=O)N1CCCC(c2cncc(Oc3cccnc3)n2)C1 (stereo not drawn)	-3.9%
Cc1cc(C)n(CC2CN(CC(=O)NC(C3CC3)C3CC3)CCO2)n1 (stereo not drawn)	-4.44%
CCn1ncc2c1CN(C(=O)Cc1cccs1)CC2COC (stereo not drawn)	-7.83%
c1coc(-c2nc3c(c(NCc4n[nH]c5c4CCC5)n2)CCNCC3)c1	7.72%
Cc1nc(NC(=O)C(C)N2CCN(c3ccccc3F)CC2)sc1C (stereo not drawn)	-2.47%
O=C(C[C@@H]1COC[C@H]2CN(C(=O)c3ccccn3)C[C@@H]12)N1CCCC1	1.42%
Cc1cc(C)n(CC(=O)NC(Cc2ccsc2)c2ccccn2)c(=O)n1 (stereo not drawn)	13.9%
CNS(=O)(=O)CCN1CC(c2ccccc2)(c2ccccc2)CCC1=O	5.38%
CCS(=O)(=O)Nc1ccc2[nH]c(C3CCC3)nc2c1	-6.11%
CCn1cc(C(=O)N2CCCC(c3[nH]ncc3S(C)(=O)=O)C2)cn1 (stereo not drawn)	-8.2%
